Reference: patent US20180265867A1, “NUCLEIC ACID MOLECULES WITH ENHANCED ACTIVITY” (priority 2015, published 2018)
d = 2'-deoxy (DNA); r = 2'-OH (RNA)

Tests used:
Assay type in all cases: cell-based, human
β-catenin = test: Western blot of β-catenin protein in MG63 cells; conditions: MG63, 50 nM, at 48 h, β-catenin cpRNA, no transfection reagent
Method: (§1) After 48 hours of transfection, cells were washed twice with ice-cold PBS and lysed in RIPA lysis buffer (50 mM Tris-HCl, pH 8.0, with 150 mM NaCl, 1.0% Igepal CA-630 (NP-40), 0.5% sodiumdeoxycholate, 0.1% SDS, and 1.0% protease inhibitor cocktail from SIGMA-ALDRICH®). Lysates were incubated on ice for 30 minutes and centrifuged at 10,000 rpm for 20 minutes to collect supernatant. Coomassie Plus—The Better Bradford Assay™ Reagent (Thermo Scientific) was used to measure protein concentrations. Thereafter, 20 μg of soluble protein was separated by SDS-PAGE and transferred to polyvinylidene difluoride membrane (Millipore). Primary antibodies against GAPDH (1:1000 dilution), β-catenin (1:1000 dilution; SIGMA-ALDRICH®), β-actin (1:1000; Cell Signaling Technology®) were used to probe the protein bands. Anti-Rabbit-HRP conjugated secondary antibodies (1:3000 dilution; R&D Systems®) were used to detect the primary antibodies, followed by the target protein visualization with EMD Millipore Immobilon™ Western Chemiluminescent HRP Substrate (ECL). […]
(§2) To further validate our results, we tested the gene knockdown efficiency of another gene CTNNB1 (β-catenin), which is expressed in MG63 cells. We performed a time course experiment (24, 48 and 72 h) by targeting CTNNB1 and GAPDH in MG63 cells and quantified the mRNA and protein levels using qRT-PCR and Western blot experiments respectively (FIG. 8).

MG63 cells = test: Flow cytometry uptake kinetics and ODN2006 blocking in MG63 cells
Method: To determine cpRNA cellular uptake kinetics, FACS experiments were repeated as mentioned above using MG63 cells, where Cy3-cpRNA was treated for different time points. Briefly, Cy3-cpRNA (50 nM) was added to cells, followed by incubation for 0.5 h, 1 h, 1.5 h, 2 h, 3 h and 4 h respectively. The cells were subsequently trypsinised and analyzed by FACS as mentioned above.
To perform […] blocking studies, seeded MG63 cells were incubated with 600 nM 3′-FITC labeled ODN2006 for 1 h, followed by addition of 50 nM cpRNA. Cells were incubated for additional 0.5 h, 1 h, 1.5 h, 2 h, 3 h and 4 h respectively, trypsinised and analyzed by FACS analysis as mentioned above.
To verify if the uptake mechanism of cpRNA was analogous to viral RNA and the RNA mimic polyriboinosinic:polyribocytidylic acid or poly(I:C), blocking studies were performed using the Btype single-stranded DNA sequence ODN2006 which share a common uptake receptor. This synthetic phosphorothioate modified oligo, though initially identified as a TLR9 agonist, blocks cellular uptake of viral RNA and poly(I:C) by preferentially competing with the common RNA uptake receptor. Blocking experiment were performed by pre-incubating the cells with FITC labeled ODN2006 for 1 h, followed by the addition of Cy3-labeled cpRNA. The blocking studies and cellular uptake was monitored using FACS analysis at different time points for up to 4 h. As a control experiment, the uptake kinetics was performed in the absence of FITC labeled ODN2006. […] These experiments verified the involvement of an alternate uptake mechanism and indicated the presence of a ubiquitous RNA capture receptor that required ˜1 h of maturation time before the endocytosis process could initiate.

IFN-α, IFN-β, IFN-γ = test: Interferon assay (IFN-α, β, γ mRNA by RT-PCR) in MG63 cells; conditions: 50 or 100 nM, 24 h, compared to cell-alone control or scrambled sequence
Method: cDNA synthesis was performed in triplicate using total RNA reverse transcribed using High Capacity cDNA reverse transcription kit (Applied Biosystems, USA), with non-template control added to ensure a lack of signal in assay background. Reactions were incubated on a 96-well Applied Biosystems 9800 Fast Thermal Cycler PCR System at 37° C. for 60 min followed by 95° C. for 5 min. The real-time PCR reactions were carried out with 10 μl of 2×TaqMan® Universal PCR Master Mix, no AmpErase® UNG (Applied Biosystems, USA), 9 μl diluted cDNA, and 1 μl of TaqMan gene specific assay mix in a 20 μl final reaction volume. Reference gene beta-actin (ACTB) (Applied Biosystems, USA) was selected as control for normalization of TaqMan data. […] Data from samples with a Ct value equal to or below 35 were further analyzed. Samples were normalized relative to endogenous control and differences in cycle number thresholds were calculated using comparative quantitation 2^−ΔΔcT method (also called the ΔΔCT method), commonly used for analyzing siRNA induced gene knockdown efficiency. […]
Thus, because cellular stress mainly originates from maturation of the RNA-TLR complex in the endosome or activation of RIG-1 in the cytoplasm, we investigated immune activation and IFN response using cpRNA and a scrambled sequence. The levels of Type-I (IFN-α and β) and Type-II (IFN-γ) IFN were tested via quantitative RT-PCR. […]

GAPDH = test: Western blot of GAPDH protein in MG63 cells; conditions: MG63, 50 nM, at 48 h, no transfection reagent
Method: as §1, §2

For “dT5: GAPDH siRNA, sense SEQ ID NO: 3 with dT5 3′-overhang, antisense SEQ ID NO: 2 with dT2 (sense CCGAGCCACAUCGCUCAGATTTTT; antisense UCUGAGCGAUGUGGCUCGGTT; sense: sugars from the 5' end r19 d5, backbone not given here; antisense: sugars from the 5' end r19 d2, backbone not given here)”, the CTNNB1 protein level (β-catenin) was “complete knockout”, the “effect of ODN2006 on cellular uptake” value (MG63 cells; MG63 cells pre-incubated 1 h with 600 nM FITC labeled ODN2006) was “did not inhibit uptake” and the “time after which cellular uptake was initiated” value (MG63 cells; MG63 cells, 50 nM, 37° C.) was about 1 h. For the same substance, the “time in which uptake finished after initiation” value (MG63 cells; MG63 cells, 50 nM, 37° C.) was 2 h, the “IFN response / immune activation (IFN-α, β, γ mRNA)” value (IFN-α, IFN-β, IFN-γ) was “no significant IFN response” and the GAPDH protein level (GAPDH) was “complete knockout”.
